{"source": "patent US8968715B2", "about": "“Drug delivery systems for photodynamic therapy” (The University of British Columbia, priority 2000, dated 2015)", "key": {"[1]": {"tested_on": "M1 rhabdomyosarcoma tumor cells", "assay": "Tumor recurrence after PDT in tumor mouse model", "assay_type": "in vivo, DBA/2 mouse", "method": "Photosensitizer formulations were prepared in 10% w/v Pluronics as described in Example 4. BPD-MA was formulated in F127. B-ring compounds B-EA6 and B-B3, were prepared in P123 due to insufficient drug loading in F127. Liposomal BPD-MA formulation was Verteporfin™ and B-ring compounds were formulated in the same lipid composition. Where DMSO/plasma preparations were made, the DMSO dissolved drug was added directly to mouse plasma and the drug association with different plasma components was observed.\nIn these experiments the tumor model used was the DBA/2 mouse (males) inoculated intradermally with M1 rhabdomyosarcoma tumor cells (M1, ATCC. When tumors reached a diameter of 4-6 mm, the mice (n=10, unless other wise stated) were treated with photodynamic therapy (PDT). PDT involved intravenous injection of the formulated drug in 0.2 mL volume of PBS. This was followed by exposure of the tumor region to laser light (Argon pumped dye laser (5W), 690 nm, 50 J/cm^2) 15 min later. Animals were then monitored for tumor recurrence over a 20 day period post treatment."}, "[2]": {"assay": "pH studies of formulation stability", "assay_type": "physicochemical", "conditions": "poloxamer formulations", "source_text": "This necessitates hydration of the solid drug-polymer with a very mild buffer to counteract acidification which occurs upon use of sterile packed distilled water as commonly practiced in clinical settings. Behavior of poloxamers is unaffected by pH, and the use of buffers would be entirely dependent on ionizable groups present on the drug substance."}, "[3]": {"assay": "Drug incorporation into 10% w/v Pluronic P123", "assay_type": "physicochemical", "conditions": "for Drug concentration formulated in 10% P123: 10% P123, non-optimized systems", "method": "Using formulation methods described in Example 5, the aim was to incorporate 2 mg/ml of B-B3 into 10% w/v P123. It was shown by this method that the B-B3 can typically be incorporated at ˜1.8 mg/ml drug (based on absorbance readings and a molar extinction coefficient of 30425) 24 h post-hydration. This translates to approximately 10% drug loss. Unincorporated drug undergoes aggregation in aqueous solutions, and is characterized by the appearance of a 730 nm absorbance peak. Although the formulations can be made completely aggregate free by centrifugation or sterile filtration through 0.2 μm filters, this adds another step in the manufacturing process, which can be avoided by increasing the copolymer:drug ratio."}, "MRL/lpr mouse": {"tested_on": "MRL/lpr mouse", "assay": "Transcutaneous PDT treatment of arthritis, ankle width", "assay_type": "in vivo", "conditions": "0.5 mg/kg i.v.", "method": "Arthritis in the MRL/lpr mouse strain was enhanced by giving 2 intradermal injections (thoracic and inguinal sites) with 0.05 ml of complete Freunds adjuvant containing 10 mg/ml heat-inactivated M. tuberculosis. PDT was given on days 0, 10 and 20 following CFA treatment. PDT was carried out as follows; 3 groups of MRL/lpr mice were injected intravenously with B-B3 at 0.5 mg/kg (copolymer or liposomal formulations), after which they were protected from light. The third group was injected with copolymer alone at an equivalent copolymer concentration to that found in the formulation. An hour later, they were exposed to light at 80 J/cm^2 for […] (8 mW/cm^2).\nAnkle width measurements were taken every 5 days prior to PDT treatment."}, "L1210 cells": {"tested_on": "L1210 cells", "assay": "Cellular uptake of photosensitizer formulations", "assay_type": "cell-based", "conditions": "3 μg/ml, FIG. 1", "method": "The protocol for setting up the cell cultures and conditions for the cellular assay essentially followed Richter et al. (Proc. SPIE, 2078: 293-304, September 1993). L1210 cells in DMEM and 10% FBS (single experiment, 3 sets) were incubated with the formulations at a concentration of 3 μg/ml and examined for uptake in the cells over time. Cells were recovered by centrifugation, the pellet briefly rinsed, and the cells lysed by freeze thawing in the presence of 2% Triton X-100®. An equal volume of methanol was added and fluorescence was read at 694 nm (λex 440 nm)."}, "[4]": {"assay": "BPD-MA drug loading and formulation stability in Pluronic copolymers (melt method, absorbance)", "assay_type": "physicochemical", "conditions": "3 days storage at room temperature", "method": "In this experiment the use of copolymers for drug loading capability and formulation stability over a 3 day period was examined using the photosensitizer drug BPD-MA. The criteria for choosing the copolymers were based on the solution and viscosity characteristics described in Example 1. The ‘melt’ method is used for the preparation and screening of the large number of samples and is described as follows. At temperatures above 50° C., poloxamers are in their molten state and serve as excellent solvents for tetrapyrrolic compounds, thus avoiding the need for pre-dissolution of drugs in organic solvents. 5 mg of BPD-MA was dissolved with the aid of vortex mixing and sonication at 55° C. into the polymer ‘melts’ to give a final concentration of 5% to 20% w/v of the respective Pluronic. To each melt sample, 2.5 ml of PBS was added to give a final BPD-MA concentration of 2 mg/ml. Samples were allowed to equilibrate to room temperature before drug loading was determined at time zero (T0). 1 ml of suspension was removed for centrifugation (Microfuge, 14,000 rpm, 30 min), and the rest filtered through 0.2 μm filters (Millipore). The filtrate was diluted 1:100 in PBS and the absorbance at 690±3 nm determined (uv-vis spectrophotometer Beckman DU-6401). This procedure was repeated 72 hours later following storage at room temperature and the absorbance measurement (T72)."}, "[5]": {"assay": "Deposition of BPD-MA / F127 formulations on lactose crystals: hydration and filtration", "assay_type": "physicochemical", "method": "In this experiment the deposition of the photosensitizer BPD-MA with the block copolymer Pluronic® F127 onto the sugar lactose was examined. Formulations containing 5% (w/v) and a 10% (w/v) F127 were tested. 0.5 g lactose and 10 mg BPD-MA were added to two rotary evaporation flasks. A stock solution of […] F127 was prepared in CH2Cl2. 1.25 ml (for 5% w/v) and 2.5 ml (for 10% w/v) F127 stock solution was added to each flask. The final volume in each flask was made up to 5.0 ml with CH2Cl2 and the components mixed to ensure complete dissolution. The solvent was removed by rotary evacuation at 50° C., and the flask left under vacuum for a further 15 min at 23° C. Micro-thin film deposits were scraped from the walls and hydrated in 5 ml water at 50° C. The formulations were filtered twice using 0.2 μm syringe filters (Acrodisc, polysulphone).\nThe experimental conditions and components were the same as Example 15 with the exception of the following changes. A stock of 0.2 mg/ml F127 was prepared in ethanol and 0.65 ml (2.5% w/v) and 1.25 ml (5% w/v) of the stock solution was added to two flasks. The final volume was made up to 5.0 ml with ethanol and the contents dissolved with warming. Ethanol was removed by rotary evacuation at 50° C., left under vacuum for 15 min at room. Micro-thin film deposits were scraped from the walls and dissolved in 5 ml water at 50° C. as previously described. […]"}}, "note": "Entries after “also recorded” stand apart in the source; their conditions may differ."}
{"compound": "C=Cc1c(C)c2cc3nc(cc4[nH]c(cc5nc(cc1[nH]2)C1(C)C5=CC=C(C(=O)O)C1C(=O)OC)c(C)c4CCC(=O)OC)C(CCC(=O)OC)=C3C", "note": "(stereo not shown) [B-B3]", "values": [{"measurement": "PDT efficacy in tumor model", "setting": "[1]; plasma/DMSO preparation", "value": "completely ineffective for PDT purposes"}, {"measurement": "pH dependence of formulation stability", "setting": "[2]", "value": "detrimental to formulation stability"}, {"measurement": "Drug concentration formulated in 10% P123", "setting": "[3]", "value": "approximately 1.8 mg/ml"}, {"measurement": "Drug incorporated / retained 24 h post-hydration", "setting": "[3]; aim 2 mg/ml into 10% w/v P123", "value": "~1.8", "unit": "mg/mL"}, {"measurement": "Control of joint inflammation (increase in ankle swelling)", "setting": "MRL/lpr mouse; copolymer formulation, 80 J/cm^2, FIG. 2", "value": "highly effective in controlling the inflammation"}, {"measurement": "Control of joint inflammation (increase in ankle swelling)", "setting": "MRL/lpr mouse; liposomal formulation, after day 25", "value": "exacerbation of the inflammatory condition"}, {"measurement": "Control of joint inflammation (increase in ankle swelling)", "setting": "MRL/lpr mouse; liposomal formulation, earlier part of the study, FIG. 2, 0.5 mg/kg", "value": "improved suppression of the inflammation compared to controls; also recorded: better suppression of the inflammation compared to the controls"}, {"measurement": "Incubation time of 50% uptake level", "setting": "L1210 cells; copolymer Pluronic P123 formulation", "value": "close to ‘zero’ incubation time"}]}
{"compound": "C=Cc1c(C)c2cc3nc(cc4[nH]c(cc5nc(cc1[nH]2)C1(C)C5=CC=C(C(=O)OC)C1C(=O)OC)c(C)c4CCC(=O)OCCO)C(CCC(=O)OCCO)=C3C", "note": "(stereo not shown) [B-EA6]", "values": [{"measurement": "pH dependence of formulation stability", "setting": "[2]", "value": "does not display any pH-dependency"}]}
{"compound": "benzoporphyrin derivative monoacid ring A [BPD-MA]", "values": [{"measurement": "Percent (%) Mice Tumor Free", "setting": "[1]; Liposomal, 1.0 mg/kg, Day 7", "value": 100, "unit": "%"}, {"measurement": "Percent (%) Mice Tumor Free", "setting": "[1]; Liposomal, 1.0 mg/kg, Day 14", "value": 100, "unit": "%"}, {"measurement": "Percent (%) Mice Tumor Free", "setting": "[1]; Liposomal, 1.0 mg/kg, Day 20", "value": 30, "unit": "%"}, {"measurement": "Percent (%) Mice Tumor Free", "setting": "[1]; Pluronic F127, 1.0 mg/kg, Day 7", "value": 100, "unit": "%"}, {"measurement": "Percent (%) Mice Tumor Free", "setting": "[1]; Pluronic F127, 1.0 mg/kg, Day 14", "value": 60, "unit": "%"}, {"measurement": "Percent (%) Mice Tumor Free", "setting": "[1]; Pluronic F127, 1.0 mg/kg, Day 20", "value": 60, "unit": "%"}, {"measurement": "Likelihood to remain tumor free, poloxamer formulation compared to liposomal BPD-MA", "setting": "[1]; end of the 20 day period", "value": "twice as likely to remain tumor free"}, {"measurement": "Drug concentration formulated in 10% P123", "setting": "[3]", "value": "≤ 4000", "unit": "µg/mL"}, {"measurement": "Stability of BPD-MA formulations in Pluronic", "setting": "[4]", "value": "no loss of stability"}, {"measurement": "Filtration through 0.2 μm filter", "setting": "[5]; 2.5% and 5% w/v F127 on lactose, ethanol as solvent", "value": "no resistance"}, {"measurement": "Drug loss on filtration through 0.2 μm filters", "setting": "[5]; 5% w/v and 10% w/v F127 on lactose, CH2Cl2 as solvent", "value": "no drug loss"}, {"measurement": "Incubation time at which uptake saturation level is achieved", "setting": "L1210 cells; liposomal formulation", "value": 30, "unit": "min"}, {"measurement": "Incubation time of 50% uptake", "setting": "L1210 cells; liposomal formulation", "value": "approximately 5 min"}]}
